Where a name gives a salt, the structure may show the parent alone.
Legend:
Experiment in all cases: Enzymatic Assay
Settings in all cases: pH 7.5; 24 °C
Phosphodiesterase = biological target: T1, Phosphodiesterase (Trypanosoma cruzi, UniProt Q53I59)
T1 sequence (Q53I59 whole entry): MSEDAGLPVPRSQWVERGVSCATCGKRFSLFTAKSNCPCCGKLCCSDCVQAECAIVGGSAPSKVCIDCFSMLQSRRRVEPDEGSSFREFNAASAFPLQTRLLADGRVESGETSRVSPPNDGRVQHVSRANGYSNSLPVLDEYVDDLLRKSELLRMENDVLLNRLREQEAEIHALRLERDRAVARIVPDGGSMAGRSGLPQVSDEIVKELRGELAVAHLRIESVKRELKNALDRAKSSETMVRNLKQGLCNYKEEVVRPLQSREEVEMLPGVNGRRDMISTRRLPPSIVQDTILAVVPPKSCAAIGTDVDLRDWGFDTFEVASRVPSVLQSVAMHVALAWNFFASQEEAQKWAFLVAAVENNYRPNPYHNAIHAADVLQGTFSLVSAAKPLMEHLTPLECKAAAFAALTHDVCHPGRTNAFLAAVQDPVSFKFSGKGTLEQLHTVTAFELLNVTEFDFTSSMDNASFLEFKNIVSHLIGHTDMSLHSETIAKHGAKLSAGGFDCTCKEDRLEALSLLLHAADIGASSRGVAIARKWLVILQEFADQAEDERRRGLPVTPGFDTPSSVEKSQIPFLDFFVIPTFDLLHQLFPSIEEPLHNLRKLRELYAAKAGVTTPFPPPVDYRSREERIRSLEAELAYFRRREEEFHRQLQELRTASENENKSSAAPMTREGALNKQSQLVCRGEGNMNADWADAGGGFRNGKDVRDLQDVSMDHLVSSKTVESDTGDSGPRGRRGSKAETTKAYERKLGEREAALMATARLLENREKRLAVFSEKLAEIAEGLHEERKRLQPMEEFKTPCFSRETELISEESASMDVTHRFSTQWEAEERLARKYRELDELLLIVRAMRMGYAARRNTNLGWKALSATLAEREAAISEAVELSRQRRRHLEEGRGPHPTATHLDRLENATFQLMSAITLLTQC
Experimental: (§1) Enzymatic activities were assayed using [3H] cAMP and [3H]cGMP as substrate.

[1] = biological target: cGMP-dependent 3',5'-cyclic phosphodiesterase (Homo sapiens, UniProt O00408)
Chain of cGMP-dependent 3',5'-cyclic phosphodiesterase (O00408 whole entry): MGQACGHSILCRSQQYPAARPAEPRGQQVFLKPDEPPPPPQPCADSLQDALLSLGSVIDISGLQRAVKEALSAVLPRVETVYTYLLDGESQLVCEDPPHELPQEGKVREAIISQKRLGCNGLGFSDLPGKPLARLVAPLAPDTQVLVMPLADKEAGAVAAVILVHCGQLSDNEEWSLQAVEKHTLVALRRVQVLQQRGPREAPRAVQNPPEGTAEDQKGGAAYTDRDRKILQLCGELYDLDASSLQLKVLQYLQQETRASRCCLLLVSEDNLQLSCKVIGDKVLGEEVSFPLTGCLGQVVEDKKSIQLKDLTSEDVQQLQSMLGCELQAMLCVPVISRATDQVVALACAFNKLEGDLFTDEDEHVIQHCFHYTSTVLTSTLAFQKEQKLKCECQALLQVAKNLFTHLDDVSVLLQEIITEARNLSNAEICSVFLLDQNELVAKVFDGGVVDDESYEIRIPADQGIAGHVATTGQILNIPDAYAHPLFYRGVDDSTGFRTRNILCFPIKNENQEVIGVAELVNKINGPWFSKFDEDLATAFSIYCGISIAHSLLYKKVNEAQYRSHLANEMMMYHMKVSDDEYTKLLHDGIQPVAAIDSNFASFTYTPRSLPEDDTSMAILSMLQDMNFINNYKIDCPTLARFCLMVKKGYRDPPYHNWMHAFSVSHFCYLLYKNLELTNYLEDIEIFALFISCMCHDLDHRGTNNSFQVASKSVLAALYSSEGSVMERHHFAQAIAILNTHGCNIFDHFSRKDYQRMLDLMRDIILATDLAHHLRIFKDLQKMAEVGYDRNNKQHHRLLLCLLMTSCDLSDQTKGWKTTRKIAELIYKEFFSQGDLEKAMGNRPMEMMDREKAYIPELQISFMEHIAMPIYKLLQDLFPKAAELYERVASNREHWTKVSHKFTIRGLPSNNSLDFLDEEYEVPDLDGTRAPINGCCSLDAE
Experimental: as §1

[2] = biological target: cAMP-specific 3',5'-cyclic phosphodiesterase 4D (Homo sapiens, UniProt Q08499)
Chain of cAMP-specific 3',5'-cyclic phosphodiesterase 4D (Q08499 whole entry): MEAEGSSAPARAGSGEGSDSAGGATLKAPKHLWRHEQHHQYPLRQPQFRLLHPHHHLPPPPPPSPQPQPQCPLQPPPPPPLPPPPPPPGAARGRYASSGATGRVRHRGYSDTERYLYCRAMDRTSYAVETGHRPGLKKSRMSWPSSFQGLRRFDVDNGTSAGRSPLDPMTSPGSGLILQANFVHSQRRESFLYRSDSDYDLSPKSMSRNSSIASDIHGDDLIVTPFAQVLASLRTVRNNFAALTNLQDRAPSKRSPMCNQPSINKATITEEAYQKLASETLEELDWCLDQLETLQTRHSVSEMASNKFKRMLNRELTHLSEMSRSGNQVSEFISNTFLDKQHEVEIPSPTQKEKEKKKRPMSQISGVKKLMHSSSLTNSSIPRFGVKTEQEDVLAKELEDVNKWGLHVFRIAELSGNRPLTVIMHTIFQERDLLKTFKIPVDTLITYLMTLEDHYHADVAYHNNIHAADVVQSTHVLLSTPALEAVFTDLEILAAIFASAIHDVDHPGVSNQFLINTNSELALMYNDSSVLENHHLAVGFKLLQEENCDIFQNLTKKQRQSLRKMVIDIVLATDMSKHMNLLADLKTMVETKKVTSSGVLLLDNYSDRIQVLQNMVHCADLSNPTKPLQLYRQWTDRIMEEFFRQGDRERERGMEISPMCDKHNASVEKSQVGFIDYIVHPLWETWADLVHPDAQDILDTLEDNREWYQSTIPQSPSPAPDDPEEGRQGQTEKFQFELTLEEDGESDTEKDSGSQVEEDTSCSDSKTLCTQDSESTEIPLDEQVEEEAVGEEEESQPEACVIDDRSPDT
Experimental: as §1

[3] = biological target: cGMP-inhibited 3',5'-cyclic phosphodiesterase 3A (Homo sapiens, UniProt Q14432)
Chain of cGMP-inhibited 3',5'-cyclic phosphodiesterase 3A (Q14432 whole entry): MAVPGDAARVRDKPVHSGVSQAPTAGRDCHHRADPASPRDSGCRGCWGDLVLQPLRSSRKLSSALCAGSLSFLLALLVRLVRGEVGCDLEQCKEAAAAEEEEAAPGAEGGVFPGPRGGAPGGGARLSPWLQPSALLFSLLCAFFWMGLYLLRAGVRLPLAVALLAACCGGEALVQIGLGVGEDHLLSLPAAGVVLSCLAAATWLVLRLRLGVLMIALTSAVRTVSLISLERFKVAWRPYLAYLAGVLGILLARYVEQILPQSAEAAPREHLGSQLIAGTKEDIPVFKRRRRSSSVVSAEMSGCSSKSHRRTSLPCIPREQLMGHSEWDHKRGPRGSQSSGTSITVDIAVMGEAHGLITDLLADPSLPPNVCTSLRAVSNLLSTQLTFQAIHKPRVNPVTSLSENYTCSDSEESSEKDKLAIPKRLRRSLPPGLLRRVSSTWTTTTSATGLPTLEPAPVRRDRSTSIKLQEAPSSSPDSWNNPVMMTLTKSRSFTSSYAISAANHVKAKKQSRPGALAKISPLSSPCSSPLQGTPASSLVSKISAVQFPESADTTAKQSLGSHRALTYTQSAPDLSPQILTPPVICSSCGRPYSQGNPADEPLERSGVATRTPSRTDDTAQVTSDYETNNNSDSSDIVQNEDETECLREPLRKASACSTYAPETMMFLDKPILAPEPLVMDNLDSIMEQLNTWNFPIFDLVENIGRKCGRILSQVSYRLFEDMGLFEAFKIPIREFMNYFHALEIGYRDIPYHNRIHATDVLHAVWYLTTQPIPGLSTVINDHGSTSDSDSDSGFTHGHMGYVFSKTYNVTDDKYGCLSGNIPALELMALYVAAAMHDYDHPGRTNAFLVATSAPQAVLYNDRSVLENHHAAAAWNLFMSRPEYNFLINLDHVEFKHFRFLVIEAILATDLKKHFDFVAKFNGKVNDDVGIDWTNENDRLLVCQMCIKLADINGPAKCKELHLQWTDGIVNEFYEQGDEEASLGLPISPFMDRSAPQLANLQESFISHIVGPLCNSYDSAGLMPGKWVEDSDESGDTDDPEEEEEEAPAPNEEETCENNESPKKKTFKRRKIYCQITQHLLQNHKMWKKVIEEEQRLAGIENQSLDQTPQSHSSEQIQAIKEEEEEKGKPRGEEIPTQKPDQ
Experimental: as §1

[4] = biological target: High affinity cAMP-specific and IBMX-insensitive 3',5'-cyclic phosphodiesterase 8A (Homo sapiens, UniProt O60658)
Chain of High affinity cAMP-specific and IBMX-insensitive 3',5'-cyclic phosphodiesterase 8A (O60658 whole entry): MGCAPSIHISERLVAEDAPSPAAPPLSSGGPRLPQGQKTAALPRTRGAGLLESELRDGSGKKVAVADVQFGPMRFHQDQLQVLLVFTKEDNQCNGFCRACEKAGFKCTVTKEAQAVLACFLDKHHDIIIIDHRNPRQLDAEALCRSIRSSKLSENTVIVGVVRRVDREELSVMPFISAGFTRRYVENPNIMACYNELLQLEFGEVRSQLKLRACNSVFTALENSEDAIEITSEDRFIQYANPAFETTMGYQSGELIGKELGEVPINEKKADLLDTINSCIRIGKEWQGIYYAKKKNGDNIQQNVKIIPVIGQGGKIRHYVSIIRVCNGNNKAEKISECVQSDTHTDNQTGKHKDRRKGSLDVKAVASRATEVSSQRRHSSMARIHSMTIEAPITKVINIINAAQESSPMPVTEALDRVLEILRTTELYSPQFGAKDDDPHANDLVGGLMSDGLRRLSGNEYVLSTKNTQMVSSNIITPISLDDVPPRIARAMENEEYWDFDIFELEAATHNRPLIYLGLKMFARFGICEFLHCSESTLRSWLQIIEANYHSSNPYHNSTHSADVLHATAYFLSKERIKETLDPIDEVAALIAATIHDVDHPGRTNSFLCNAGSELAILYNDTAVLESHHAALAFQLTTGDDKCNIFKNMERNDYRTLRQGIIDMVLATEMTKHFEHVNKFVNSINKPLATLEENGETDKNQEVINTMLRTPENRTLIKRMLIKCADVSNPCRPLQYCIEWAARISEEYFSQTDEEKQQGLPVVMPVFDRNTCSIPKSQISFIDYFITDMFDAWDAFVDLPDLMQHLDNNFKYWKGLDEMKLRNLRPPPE
Experimental: as §1

[5] = biological target: cGMP-specific 3',5'-cyclic phosphodiesterase (Homo sapiens, UniProt O76074)
Experimental: as §1

Structure (SMILES)	IC50 (Phosphodiesterase)	further results
COc1ccc(Cc2nccc3cc(OC)c(OC)cc23)cc1OC	25 µM	–
COc1ccc([C@@H]2CNC(=O)C2)cc1OC1CCCC1 (racemic) [Adeo]	> 100 µM	–
CCCCCC[C@H]([C@H](C)O)n1cnc2c(N)ncnc21 (relative stereo) [3-(6-amino-9H-purin-9-yl)nonan-2-ol]	> 100 µM	IC50 [1]: 0.8 µM
CC(=O)CCCCn1c(=O)c2c(ncn2C)n(C)c1=O [1-(5-Oxohexyl)theobromine (pentoxifylline)]	> 100 µM	–
CCOC(=O)c1cnc2c(cnn2CC)c1N=NC(C)C [1-Ethyl-4-(N'-isopropylidene-hydrazino)-1H-pyrazolo[3,4-b]pyridine-5-carboxylic acid ethyl ester]	0.7 µM	IC50 [2]: 2 µM
CC(C)Cn1c(=O)n(C)c(=O)c2[nH]cnc21 [1-methyl-3-(2-methylpropyl)-2,3,6,7-tetrahydro-1H-purine-2,6-dione]	68 µM	–
COc1cc(-c2ccc(=O)[nH]n2)ccc1OC(F)F [6-[4-(difluoromethoxy)-3-methoxyphenyl]-2,3-dihydropyridazin-3-one]	> 100 µM	IC50 [3]: 0.5 µM
COc1cc2c(cc1OC)-c1c/c(=N\c3c(C)cc(C)cc3C)n(C)c(=O)n1CC2 [CAS_5537]	3.9 µM	IC50 [3]: 0.0003 µM
OCCN(CCO)c1nc(N2CCCCC2)c2nc(N(CCO)CCO)nc(N3CCCCC3)c2n1 [Dipyridamine]	6.9 µM	IC50 [4]: 0.5 µM
Cc1[nH]c(=O)c(C#N)cc1-c1ccncc1 [Milrinone]	> 100 µM	–
CN(C(=O)CCCOc1ccc2[nH]c(=O)ccc2c1)C1CCCCC1 [N-Cyclohexyl-N-methyl-4-(2-oxo-1,2-dihydro-quinolin-6-yloxy)-butyramide]	> 100 µM	–
CCCOc1cc(CC2CNC(=O)N2)ccc1OC (stereo not given) [Ro20-1724]	> 100 µM	–
CCCc1nn(C)c2c(=O)[nH]c(-c3cc(S(=O)(=O)N4CCN(C)CC4)ccc3OCC)nc12 [SILDENAFIL CITRATE]	> 1 µM	–
CCCc1nn(C)c2c(=O)[nH]c(-c3cc(S(=O)(=O)NC(=O)OC(C)C)ccc3OCC)nc12 [Wyq16#]	0.23 µM	IC50 [5]: 0.003 µM
